Laboratory results published in patent US9289505B2, “Compositions and methods for delivering nucleic acid molecules and treating cancer” (Rutgers, The State University of New Jersey, priority 2010, dated 2016).
Non-standard residues stand in square brackets, D forms with d. No end group written: not given here. d = 2'-deoxy (DNA); r = 2'-OH (RNA)

Tests used:
MDR1 mRNA = assay: MDR1 gene expression in subcutaneous tumors, quantitative RT-PCR; assay type: in vivo, human; details: treated 8 times within 30 days, vs untreated control
Method: (§1) The expression of MDR1 and BCL2 genes was measured using a quantitative RT-PCR as previously described (Pakunlu et al. (2006) J. Control. Rel., 114:153-162). Gene expression was calculated as a percent of internal standard (β2-microglobulin). To identify the presence of BCL2, P-glycoprotein and Caspase 3 (CASP3) proteins, the immunohistochemical staining of paraffin-embedded tumor tissue slides was carried out. For BCL2 and CASP3, slides were deparaffinized in xylene for 5 min followed by progressive rehydration in 100%, 95%, 70% and 50% ethanol for 3 minutes during each step. Endogenous peroxidase activity was blocked by incubating slides in 3% H2O2 solution in methanol at room temperature for 10 minutes and washing in 300 ml PBS two times for 5 minutes. Slides then were stained with anti-mouse monoclonal antibodies for BCL2 conjugated with FITC (1:200 dilution; BioLegend, catalog number 633502, San Diego, Calif.) and for CASP3 conjugated with Alexa Flour 647 (1:200 dilution; BioLegend, catalog number 622702, San Diego, Calif.) by incubating for an hour, washed in 300 ml PBS two times for 5 minutes and analyzed by fluorescence microscopy. To identify the expression of P-glycoprotein, after deparaffinization and rehydration, the slides were stained using Vector® M.O.M. Immunodetection Kit (Vector Laboratories, Inc., Burlingame, Calif.). Mouse monoclonal antibody to P-glycoprotein (ab3366, 1:40 dilution) obtained from Abcam (Cambridge, Mass.) was used as primary antibody for the detection of P-glycoprotein. Biotinylated anti-mouse IgG Reagent (1:250 dilution, Vector Laboratories, Inc., Burlingame, Calif.) and HSP-Streptavidine Detection System (1:500 dilution, Vector Laboratories, Inc., Burlingame, Calif.) in combination with DAB substrate kit (Vector Laboratories, Inc., Burlingame, Calif.) for peroxidase were used for visualization. After staining, the slides were examined by light microscopy and photographed.

BCL2 mRNA = assay: BCL2 gene expression in subcutaneous tumors, quantitative RT-PCR; assay type: in vivo, human; details: treated 8 times within 30 days, vs untreated control
Method: as §1

[1] = system: xenografts of human malignant ascites (ovarian carcinoma); assay: In vivo antitumor activity in mice bearing xenografts of human malignant ascites; details: intraperitoneal treatment max 8 times within 30 days; DOX 2.5 mg/kg, CIS 2.5 mg/kg
Method: All mice received cancer cells from the same patient. When the tumors reached a size of about 0.3 cm^3 (15-20 days after transplantation), mice were treated intraperitoneally with the following formulations: (1) Saline (untreated control); (2) Liposomes (Lip); (3) LHRH; (4) DOX; (5) Lip-DOX; (6) Lip-DOX-BCL2 ASO; (7) Lip-DOX-MDR1 ASO; (8) Lip-DOX-BCL2-MDR1 ASO; (9) LHRH-Lip-DOX-BCL2-MDR1 ASO; (10) CIS; (11) Lip-CIS; (12) Lip-CIS-BCL2 ASO; (13) Lip-CIS-MDR1 ASO; (14) Lip-CIS-BCL2-MDR1 ASO; (15) LHRH-Lip-CIS-BCL2-MDR1 ASO; (16) DOX+CIS; (17) Lip-DOX+Lip-CIS; (18) Lip-DOX-BCL2 ASO+Lip-CIS-BCL2 ASO; (19) Lip-DOX-MDR1 ASO+Lip-CIS-MDR1 ASO; (20) Lip-DOX-BCL2-MDR1 ASO+Lip-CIS-BCL2-MDR1 ASO; (21) LHRH-Lip-DOX-BCL2-MDR1 ASO+LHRH-Lip-CIS-BCL2-MDR1 ASO. […] The animals were treated maximum 8 times over four weeks and the development of primary tumor and intraperitoneal metastases was monitored by fluorescent IVIS (Xenogen, Alameda, Calif.) and ultrasound Vevo 2100 (VisualSonics, Toronto, Canada) imaging systems. To initiate bioluminescence of cancer cells, 1× substrate/reaction buffer (Clontech, Mountain View, Calif.) was diluted 1:20 with DPBS and 100 μl of the solution was injected into each mouse. The bioluminescent images were taken 10 minutes after the injection of the substrate. The size of primary tumor was measured by a caliper. At the end of the experiments, tumors and ascites were excised and their mass was measured. Animal weight was evaluated every day during the treatment period. Changes in tumor size were used as an overall marker for antitumor activity.

[2] = system: tumor and malignant ascites; assay: Apoptosis induction in tumor and malignant ascites (cell death detection ELISA); assay type: in vivo, mice; details: histone-complexed DNA fragments
Method: (§2) Induction of apoptosis was analyzed by the measurement of the enrichment of histone-associated DNA fragments (mono- and oligo-nucleosomes) in homogenates of the tumor, malignant ascites and other organs (liver, kidney, lung, heart and brain) using anti-histone and anti-DNA antibodies by a cell death detection ELISA Plus kit (Roche, Nutley, N.J.) as previously described (Pakunlu et al. (2004) Cancer Res., 64:6214-6224; Dharap et al. (2005) Proc. Natl. Acad. Sci., 102:12962-12967; Dharap et al. (2003) Pharm. Res., 20:889-896).

Caspase 3 = assay: Immunohistochemical staining of tumor tissue for Caspase 3; assay type: in vivo, human; details: tumor tissue sections
Method: as §1, with “Mouse monoclonal antibody to P-glycoprotein (ab3366, 1:40 dilution) obtained from Abcam (Cambridge, Mass.) was used as primary antibody for the detection of P-glycoprotein. Biotinylated anti-mouse IgG Reagent (1:250 dilution, Vector Laboratories, Inc., Burlingame, Calif.) and HSP-Streptavidine Detection System (1:500 dilution, Vector Laboratories, Inc., Burlingame, Calif.) in combination with DAB substrate kit (Vector Laboratories, Inc., Burlingame, Calif.) for peroxidase were used for visualization. After staining, the slides were examined by light microscopy and photographed.” left out

[3] = Maximum tolerated dose from animal weight change; assay type: in vivo; details: mice; estimated from animal weight change after injection of increasing doses
[4] = system: subcutaneous tumor xenografts of human A549 cancer cells; assay: Antitumor activity in subcutaneous A549 xenografts; details: intratumoral 3 times within 10 days
Method: NCR nude mice (female, 6 weeks, 20 g) were purchased from Taconic Farms, Inc. (Germantown, N.Y.). […] Briefly, A549 human cancer cells transfected with luciferase (5×10^6) were subcutaneously transplanted into the flanks of female athymic nu/nu mice. According to the approved institutional animal use protocol, the tumors were measured by a caliper every other day and their volumes were calculated as d^2×D/2 where d and D are the shortest and longest diameter of the tumor in mm, respectively. When the tumor reached a mean size of 50 mm^3, mice were divided into seven groups and injected intratumorally 3 times within 10 days with 150 μL of the following formulations: (1) saline (control); (2) free non-bound LHRH; (3) free non-bound siRNA; (4) free non-bound CIS; (5) Mixture of CIS and SPIO-PPI G5; (6) Mixture of CIS and SPIO-PPI G5-siRNA; and (7) Mixture of CIS and SPIO-PPI G5-siRNA-PEG-LHRH complexes. The concentrations of CIS and siRNA in the formulations were 2.5 mg/kg and 30 μM, respectively. Changes in tumor size were monitored by real-time bioluminescence in anesthetized animals by IVIS imaging system (Xenogen Bioscience, Cranbury, N.J.).

[5] = system: healthy organs (liver, kidney, spleen, heart, lung and brain); assay: Apoptosis induction in healthy organs (cell death detection ELISA); assay type: in vivo, mice
Method: as §2

BCL2 gene = BCL2 gene expression, RT-PCR; assay type: cell-based, human; details: A2780 cells, BCL2 siRNA 1 μM delivered by the named carrier, 24 hours
Method: Reverse transcription-polymerase chain reaction (RT-PCR) was used for the analysis of gene expression (Pakunlu et al. (2004) Cancer Res., 64:6214-6224). […] After 24 hours, total cellular RNA was isolated using an RNeasy kit (Qiagen, Valencia, Calif.). […] After synthesis, the reaction mixture was immediately subjected to polymerase chain reaction (PCR), which was carried out using […] System 2400 (Perkin-Elmer, Shelton, Conn.). β2-microglobulin (β2-m) was used as an internal standard. The following pairs of primers were used: BCL2: [NT] (sense; SEQ ID NO: 6), [NT] (antisense; SEQ ID NO: 7); β2-m (internal […] (sense; SEQ ID NO: 8), [NT] (antisense; SEQ ID NO: 9). PCR regimen was as follows: 94° C. for 5 minutes; 94° C. for 1 minute, 55° C. for 1 minute, and 72° C. for 1 minute for 41 cycles; and 60° C. for 10 minutes. PCR products were separated in 4% NuSieve 3:1 Reliant-agarose gels (Lonza, Basel, Switzerland) in 1× Tris-borate EDTA buffer [0.089 mol/L Tris-borate, 0.002 mol/L EDTA (pH 8.3); Research Organics Inc., Cleveland, Ohio] by submarine electrophoresis. The gels were stained with EtBr and digitally photographed.

| Compound | expression of MDR1 gene (MDR1 mRNA) | expression of BCL2 gene (BCL2 mRNA) | development and mass of intraperitoneal metastases and malignant ascites [1] | growth of primary subcutaneous tumor (volume) [1] | apoptosis induction in tumor and malignant ascites [2] | expression/activation of caspase 3 (Caspase 3) | maximum tolerated dose [3] [mg/kg] | decrease of tumor volume/growth compared with untreated control ([4]; last day of treatment, CIS 2.5 mg/kg, siRNA 30 μM) [%] | apoptosis induction in healthy organs [5] | tumor growth / antitumor activity [4] | expression of targeted BCL2 gene, from control value (BCL2 gene) |
| --- | --- | --- | --- | --- | --- | --- | --- | --- | --- | --- | --- |
| N.N.[Cl][Pt][Cl] [CIS, cisplatin] | statistically significant overexpression | statistically significant overexpression | more effective in limiting the growth of both primary tumor and malignant ascites when compared to corresponding DOX formulations | more effective in limiting the growth of both primary tumor and malignant ascites when compared to corresponding DOX formulations | induced apoptosis | activated caspase 3 | 2.5 | 36.2 | – | – | – |
| COc1cccc2c1C(=O)c1c(O)c3c(c(O)c1C2=O)C[C@@](O)(C(=O)CO)C[C@@H]3O[C@H]1C[C@H](N)[C@H](O)[C@H](C)O1 [DOX, doxorubicin] | statistically significant overexpression | statistically significant overexpression | – | slowed down the growth | induced apoptosis | activated caspase 3 | 2.5 | – | – | – | – |
| Lys6-des-Gly10-Pro9-ethylamide (Gln-His-Trp-Ser-Tyr-DLys-Leu-Arg-Pro-NH-Et; SEQ ID NO: 3) (QHWSY[dK]LRP-NHEt) [LHRH] | did not change significantly | did not change significantly | did not influence | did not influence | did not induce detectable levels of apoptosis | – | – | – | did not induce detectable levels of apoptosis | did not significantly influence the growth of the tumor | – |
| sense strand, 5′-CCU CGG GCU GUG CUC UUU U-dTdT-3′, SEQ ID NO: 10; antisense strand, 5′-AAA AGA GCA CAG CCC GAG G-dTdT-3′, SEQ ID NO: 11 (sense CCUCGGGCUGUGCUCUUUUTT; antisense AAAAGAGCACAGCCCGAGGTT; sugars from the 5' end r19 d2, backbone not given here) [naked non-specific siRNA, non-specific siRNA used as a negative control] | – | – | – | – | – | – | – | – | – | – | did not influenced |
